Measurements from patent publication US20230021483A1, “[…] […] METHOD AND CLASSIFICATION OF PHARMACEUTICAL COMPONENTS BY USING TRANSCRIPTOMES” (National Institutes of Biomedical Innovation, Health and …, priority 2016, published 2023).

Legend:
liver (LV) = assay: Whole organ transcriptome (GeneChip microarray) of liver 6 h after adjuvant administration: sDEGs, hierarchical clustering; format: in vivo, C57BL/6 mice; details: liver; on adjuvant group (cluster) in LV: key: G1 (interferon signaling); G2 (metabolism of lipids and lipoproteins); G3 (response to stress); G4 (response to wounding); G5 (phosphate-containing compound metabolic process); G6 (phagosome)
spleen (SP) = assay: Whole organ transcriptome (GeneChip microarray) of spleen 6 h after adjuvant administration: sDEGs, hierarchical clustering; format: in vivo, C57BL/6 mice; on adjuvant group (cluster) in SP: key: G1 (interferon signaling); G2 (metabolism of lipids and lipoproteins); G3 (response to stress); G4 (response to wounding); G5 (phosphate-containing compound metabolic process); G6 (phagosome)
[1] = tested on: adjuvant-associated biological themes in LV, SP, LN; details: LV, ID
Summary of the method: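 Enrichment score S sums −log(p) over consensus themes whose names contain a pre-selected adjuvant-associated term such as "stress" or "cytokine". Consensus requires a theme in all three mice of a group, p<0.05. Themes come from TargetMine analysis of genes with eij/ei(c)>2.0, Fisher's exact test, Holm-Bonferroni-corrected.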

[2] = i.d. administration, fold change <0.667, p<0.01, customized PA call=1, 6 h after adjuvant
[3] = i.d. administration, fold change >1.5, p<0.01, customized PA call=1, 6 h after adjuvant

Compound: Nc1nc2c(ncn2[C@@H]2O[C@@H]3COP(=O)(O)O[C@H]4[C@@H](O)[C@H](n5cnc6c(N)ncnc65)O[C@@H]4COP(=O)(O)O[C@@H]2[C@@H]3O)c(=O)[nH]1 [cGAMP, Cyclic [G(2′,5′)pA(3′,5′)p]]
- adjuvant group (cluster) in LV (liver (LV); hierarchical clustering): G1
- Number of gene probes with statistically significant changes (sDEGs), LV, Down (liver (LV); [2]): 248
- Number of gene probes with statistically significant changes (sDEGs), LV, Up (liver (LV); [3]): 841
- adjuvant group (cluster) in SP (spleen (SP); hierarchical clustering): G1
- Number of gene probes with statistically significant changes (sDEGs), SP, Down (spleen (SP); [2]): 93
- Number of gene probes with statistically significant changes (sDEGs), SP, Up (spleen (SP); [3]): 680
- GO annotation: Cytokine-cytokine receptor interaction (Term: cytokine) [1]: 5.57
- GO annotation: Cytokine-cytokine receptor interaction|Endocytosis (Term: cytokine) [1]: 24.6
- GO annotation: NF-kappa B signaling pathway (Term: NF-kappa B signaling pathway) [1]: 4.86
- GO annotation: TNF signaling pathway (Term: TNF signaling pathway) [1]: 27.6
- GO annotation: activation of immune response (Term: immune response) [1]: 12.6
- GO annotation: activation of innate immune response (Term: innate immune response) [1]: 16.9
- GO annotation: acute inflammatory response (Term: inflammatory response) [1]: 0
- GO annotation: adaptive immune response (Term: adaptive immune response) [1]: 0
- GO annotation: adaptive immune response based on somatic recombination of immune receptors built from immunoglobulin superfamily domains (Term: adaptive immune response) [1]: 3.78
- GO annotation: apoptotic process (Term: apoptosis) [1]: 4.46
- GO annotation: apoptotic signaling pathway (Term: apoptosis) [1]: 0
- GO annotation: cell chemotaxis (Term: chemotaxis) [1]: 4.4
- GO annotation: cell death (Term: cell death) [1]: 10.2
- GO annotation: cell migration (Term: migration) [1]: 0
- GO annotation: cellular response to cytokine stimulus (Term: cytokine) [1]: 32.9
- GO annotation: cellular response to interferon-alpha (Term: IFN alpha) [1]: 6.72
- GO annotation: cellular response to stress (Term: stress) [1]: 0
- GO annotation: chemokine production (Term: chemokine) [1]: 0
- GO annotation: chemokine-mediated signaling pathway (Term: chemokine) [1]: 0
- GO annotation: chemotaxis (Term: chemotaxis) [1]: 0
- GO annotation: cytokine biosynthetic process (Term: cytokine) [1]: 6.84
- GO annotation: cytokine metabolic process (Term: cytokine) [1]: 8.21
- GO annotation: cytokine production (Term: cytokine) [1]: 17.4
- GO annotation: cytokine secretion (Term: cytokine) [1]: 0
- GO annotation: cytokine-mediated signaling pathway (Term: cytokine) [1]: 16.4
- GO annotation: death (Term: cell death) [1]: 4.77
- GO annotation: defense response (Term: defense response) [1]: 62.7
- GO annotation: defense response to Gram-positive bacterium (Term: defense response) [1]: 0
- GO annotation: defense response to bacterium (Term: defense response) [1]: 8.38
- GO annotation: defense response to other organism (Term: defense response) [1]: 37
- GO annotation: defense response to protozoan (Term: defense response) [1]: 4.37
- GO annotation: defense response to virus (Term: defense response) [1]: 19.8
- GO annotation: granulocyte chemotaxis (Term: chemotaxis) [1]: 0
- GO annotation: granulocyte migration (Term: migration) [1]: 0
- GO annotation: immune response (Term: immune response) [1]: 42.2
- GO annotation: immune response-activating signal transduction (Term: immune response) [1]: 14.1
- GO annotation: immune response-regulating signaling pathway (Term: immune response) [1]: 17.6
- GO annotation: inflammatory response (Term: inflammatory response) [1]: 11.5
- GO annotation: innate immune response (Term: innate immune response) [1]: 31.4
- GO annotation: innate immune response-activating signal transduction (Term: innate immune response) [1]: 16.2
- GO annotation: interferon-alpha production (Term: IFN alpha) [1]: 3.79
- GO annotation: intrinsic apoptotic signaling pathway (Term: apoptosis) [1]: 0
- GO annotation: leukocyte chemotaxis (Term: chemotaxis) [1]: 0
- GO annotation: leukocyte migration (Term: migration) [1]: 0
- GO annotation: leukocyte migration involved in inflammatory response (Term: inflammatory response) [1]: 0
- GO annotation: lymphocyte chemotaxis (Term: chemotaxis) [1]: 0
- GO annotation: lymphocyte migration (Term: migration) [1]: 0
- GO annotation: myeloid leukocyte migration (Term: migration) [1]: 0
- GO annotation: negative regulation of apoptotic process (Term: apoptosis) [1]: 0
- GO annotation: negative regulation of cell death (Term: cell death) [1]: 0
- GO annotation: negative regulation of cytokine production (Term: cytokine) [1]: 3.21
- GO annotation: negative regulation of defense response (Term: defense response) [1]: 0
- GO annotation: negative regulation of immune response (Term: immune response) [1]: 0
- GO annotation: negative regulation of innate immune response (Term: innate immune response) [1]: 0
- GO annotation: negative regulation of programmed cell death (Term: cell death) [1]: 0
- GO annotation: neutrophil chemotaxis (Term: chemotaxis) [1]: 0
- GO annotation: neutrophil migration (Term: migration) [1]: 0
- GO annotation: positive regulation of adaptive immune response (Term: adaptive immune response) [1]: 0
- GO annotation: positive regulation of apoptotic process (Term: apoptosis) [1]: 0
- GO annotation: positive regulation of cell death (Term: cell death) [1]: 0
- GO annotation: positive regulation of cell migration (Term: migration) [1]: 0
- GO annotation: positive regulation of chemokine production (Term: chemokine) [1]: 0
- GO annotation: positive regulation of chemotaxis (Term: chemotaxis) [1]: 0
- GO annotation: positive regulation of cytokine biosynthetic process (Term: cytokine) [1]: 0
- GO annotation: positive regulation of cytokine production (Term: cytokine) [1]: 11.1
- GO annotation: positive regulation of defense response (Term: defense response) [1]: 24.7
- GO annotation: positive regulation of immune response (Term: immune response) [1]: 15.7
- GO annotation: positive regulation of inflammatory response (Term: inflammatory response) [1]: 0
- GO annotation: positive regulation of innate immune response (Term: innate immune response) [1]: 17.2
- GO annotation: positive regulation of interferon-alpha production (Term: IFN alpha) [1]: 4.81
- GO annotation: positive regulation of leukocyte chemotaxis (Term: chemotaxis) [1]: 0
- GO annotation: positive regulation of leukocyte migration (Term: migration) [1]: 0
- GO annotation: positive regulation of programmed cell death (Term: cell death) [1]: 0
- GO annotation: positive regulation of response to wounding (Term: wounding) [1]: 0
- GO annotation: positive regulation of tumor necrosis factor superfamily cytokine (Term: cytokine) [1]: 0
- GO annotation: production of molecular mediator of immune response (Term: immune response) [1]: 0
- GO annotation: programmed cell death (Term: cell death) [1]: 6.49
- GO annotation: regulation of adaptive immune response (Term: adaptive immune response) [1]: 0
- GO annotation: regulation of adaptive immune response based on somatic recombination of immune receptors built from immunoglobulin superfamily domains (Term: adaptive immune response) [1]: 0
- GO annotation: regulation of apoptotic process (Term: apoptosis) [1]: 4.63
- GO annotation: regulation of apoptotic signaling pathway (Term: apoptosis) [1]: 0
- GO annotation: regulation of cell death (Term: cell death) [1]: 3.82
- GO annotation: regulation of cell migration (Term: migration) [1]: 0
- GO annotation: regulation of chemokine production (Term: chemokine) [1]: 0
- GO annotation: regulation of chemotaxis (Term: chemotaxis) [1]: 0
- GO annotation: regulation of cytokine biosynthetic process (Term: cytokine) [1]: 0
- GO annotation: regulation of cytokine production (Term: cytokine) [1]: 19.1
- GO annotation: regulation of defense response (Term: defense response) [1]: 37.5
- GO annotation: regulation of defense response to virus (Term: defense response) [1]: 0
- GO annotation: regulation of defense response to virus by host (Term: defense response) [1]: 0
- GO annotation: regulation of immune response (Term: immune response) [1]: 20.7
- GO annotation: regulation of inflammatory response (Term: inflammatory response) [1]: 0
- GO annotation: regulation of innate immune response (Term: innate immune response) [1]: 24.8
- GO annotation: regulation of interferon-alpha production (Term: IFN alpha) [1]: 4.28
- GO annotation: regulation of intrinsic apoptotic signaling pathway (Term: apoptosis) [1]: 0
- GO annotation: regulation of leukocyte chemotaxis (Term: chemotaxis) [1]: 0
- GO annotation: regulation of leukocyte migration (Term: migration) [1]: 0
- GO annotation: regulation of programmed cell death (Term: cell death) [1]: 4.93
- GO annotation: regulation of response to stress (Term: stress) [1]: 25.3
- GO annotation: regulation of response to wounding (Term: wounding) [1]: 3.31
- GO annotation: regulation of tumor necrosis factor superfamily cytokine production (Term: cytokine) [1]: 0
- GO annotation: response to cytokine (Term: cytokine) [1]: 45.9
- GO annotation: response to interferon-alpha (Term: IFN alpha) [1]: 14.8
- GO annotation: response to stress (Term: stress) [1]: 44.6
- GO annotation: response to wounding (Term: wounding) [1]: 0
- GO annotation: taxis (Term: chemotaxis) [1]: 0
- GO annotation: tumor necrosis factor superfamily cytokine production (Term: cytokine) [1]: 0
- IFN beta: cellular response to interferon-beta [1]: 17.6
- IFN beta: interferon-beta production [1]: 5.22
- IFN beta: positive regulation of interferon-beta production [1]: 9.2
- IFN beta: regulation of interferon-beta production [1]: 5.76
- IFN beta: response to interferon-beta [1]: 23.5
- IFN gamma: cellular response to interferon-gamma [1]: 7.44
- IFN gamma: interferon-gamma production [1]: 0
- IFN gamma: regulation of interferon-gamma production [1]: 0
- IFN gamma: response to interferon-gamma [1]: 10
- interleukin-6: interleukin-6 production [1]: 0
- interleukin-6: positive regulation of interleukin-6 production [1]: 0
- interleukin-6: regulation of interleukin-6 production [1]: 0
- interleukin-12: interleukin-12 production [1]: 0
- interleukin-12: positive regulation of interleukin-12 production [1]: 0
- interleukin-12: regulation of interleukin-12 production [1]: 0
